# Reference: paper PMC7503500, “A Structure-Activity Relationship Comparison of Imidazodiazepines Binding at Kappa, Mu, and Delta Opioid Receptors and the GABAA Receptor” (Molecules, 2020)
# “Also recorded” adds a separate entry of the source. Read-outs that look alike come from different tables or passages of the source.
# Columns and labels:
# [1] = test system: synaptic benzodiazepine-sensitive receptors (BZR), GABAAR; experiment: 3H-flunitrazepam binding, rat brain homogenate; settings: for BZR % (percent inhibition): at 10,000 nM; for Ki: read-out: BZR (Ki)
# µ opioid receptor (MOR) = µ opioid receptor (MOR) (Homo sapiens, UniProt P35372); experiment: Radioligand competition binding, MOR ([3H]-DAMGO), HEK293 cell homogenates; settings: [3H]-DAMGO; for inhibition at 10 µM: read-out: MOR % (percent inhibition), at 10,000 nM; for MOR % (percent inhibition): at 10,000 nM
# δ opioid receptor (DOR) = δ opioid receptor (DOR) (Homo sapiens, UniProt P41143); experiment: Radioligand competition binding, DOR ([3H]-DADLE), HEK293 cell homogenates; settings: for inhibition at 10 µM: read-out: DOR % (percent inhibition), at 10,000 nM; for DOR % (percent inhibition): at 10,000 nM
# κ opioid receptor (KOR) = κ opioid receptor (KOR) (Homo sapiens, UniProt P41145); experiment: Radioligand competition binding, KOR ([3H]-U69593), HEK293 cell homogenates; settings: for inhibition at 10 µM: read-out: KOR % (percent inhibition), at 10,000 nM; for inhibition at 10 µM / KOR % (percent inhibition): [3H]-U69593; for KOR % (percent inhibition): at 10,000 nM
# [2] = read-out: KOR (Ki), [3H]-U69593, HEK293 homogenates
smiles,measurement,setting,value
Fc1ccccc1C1=NCc2c(-c3cnco3)ncn2-c2ccc(Br)cc21 [SH-I-85],BZR % (percent inhibition),[1],99%
same,Ki,[1],11 nM
same,inhibition at 10 µM,µ opioid receptor (MOR),16%
same,inhibition at 10 µM,δ opioid receptor (DOR),33%
same,Ki,κ opioid receptor (KOR),162 nM
same,inhibition at 10 µM,κ opioid receptor (KOR),91%
CCOC(=O)c1ncn2c1[C@@H](C)N=C(c1ccccn1)c1cc(Br)ccc1-2 [GL-II-06],BZR % (percent inhibition),[1],81%
same,Ki,[1],556 nM
same,inhibition at 10 µM,µ opioid receptor (MOR),11%
same,inhibition at 10 µM,δ opioid receptor (DOR),9%
same,Ki,κ opioid receptor (KOR),401 nM
same,inhibition at 10 µM,κ opioid receptor (KOR),79%
C#Cc1ccc2c(c1)C(c1ccccc1F)=NCc1c(C(=O)OCc3ccccc3)ncn1-2 [MP-II-075],BZR % (percent inhibition),[1],98%
same,Ki,[1],21 nM
same,inhibition at 10 µM,µ opioid receptor (MOR),0%
same,inhibition at 10 µM,δ opioid receptor (DOR),16%
same,inhibition at 10 µM,κ opioid receptor (KOR),84%
same,Ki,κ opioid receptor (KOR); [2],547 nM
C[C@@H]1N=C(c2ccccc2F)c2cc(Br)ccc2-n2cnc(-c3cnco3)c21 [GL-III-76],BZR % (percent inhibition),[1],100%
same,Ki,[1],120 nM
same,MOR % (percent inhibition),µ opioid receptor (MOR),3%
same,DOR % (percent inhibition),δ opioid receptor (DOR),0%
same,KOR % (percent inhibition),κ opioid receptor (KOR),83%
same,Ki,κ opioid receptor (KOR); [2],221 nM
CCOC(=O)c1ncn2c1[C@@H](C)N=C(c1ccccc1F)c1cc(Br)ccc1-2 [SH-I-047],BZR % (percent inhibition),[1],84%
same,Ki,[1],238 nM
same,MOR % (percent inhibition),µ opioid receptor (MOR),16%
same,inhibition at 10 µM,δ opioid receptor (DOR),0%
same,inhibition at 10 µM,κ opioid receptor (KOR),82%
C#Cc1ccc2c(c1)C(c1ccccc1F)=N[C@@H](C)c1c(C(=O)OCC)ncn1-2 [SH-053-2′F-S-CH3],BZR % (percent inhibition),[1],92%
same,Ki,[1],111 nM
same,inhibition at 10 µM,µ opioid receptor (MOR),7%
same,inhibition at 10 µM,δ opioid receptor (DOR),36%
same,Ki,κ opioid receptor (KOR),90 nM
same,inhibition at 10 µM,κ opioid receptor (KOR),93%
Cc1ncoc1-c1ncn2c1CN=C(c1ccccc1F)c1cc(Br)ccc1-2 [KRM-III-59],BZR % (percent inhibition),[1],96%
same,Ki,[1],20 nM
same,inhibition at 10 µM,µ opioid receptor (MOR),0%
same,inhibition at 10 µM,δ opioid receptor (DOR),11%
same,Ki,κ opioid receptor (KOR),408 nM
same,inhibition at 10 µM,κ opioid receptor (KOR),73%
C#Cc1ccc2c(c1)C(c1ccccn1)=N[C@H](C)c1c(C(=O)OCC)ncn1-2 [GL-II-19],BZR % (percent inhibition),[1],71%
same,Ki,[1],1140 nM
same,inhibition at 10 µM,µ opioid receptor (MOR),17%
same,inhibition at 10 µM,δ opioid receptor (DOR),2%
same,inhibition at 10 µM,κ opioid receptor (KOR),44%
C#Cc1ccc2c(c1)C(c1ccccc1F)=N[C@@H](C)c1c(C(=O)OC(C)(C)CC)ncn1-2 [GL-I-33],BZR % (percent inhibition),[1],96%
same,Ki,[1],117 nM
same,inhibition at 10 µM,µ opioid receptor (MOR),30%
same,inhibition at 10 µM,δ opioid receptor (DOR),25%
same,Ki,κ opioid receptor (KOR),34 nM
same,inhibition at 10 µM,κ opioid receptor (KOR),94%
Cc1noc(-c2ncn3c2[C@@H](C)N=C(c2ccccc2F)c2cc(C4CC4)ccc2-3)n1 [GL-III-63],BZR % (percent inhibition),[1],28%
same,MOR % (percent inhibition),µ opioid receptor (MOR),8%
same,DOR % (percent inhibition),δ opioid receptor (DOR),31%
same,KOR % (percent inhibition),κ opioid receptor (KOR),78%
same,Ki,κ opioid receptor (KOR); [2],678 nM
C[C@H]1N=C(c2ccccc2F)c2cc(Br)ccc2-n2cnc(C(=O)O)c21 [GL-II-93],BZR % (percent inhibition),[1],73%
same,Ki,[1],86 nM
same,inhibition at 10 µM,µ opioid receptor (MOR),0%
same,inhibition at 10 µM,δ opioid receptor (DOR),0%
same,inhibition at 10 µM,κ opioid receptor (KOR),0%
same,KOR affinity (in words),"κ opioid receptor (KOR); screening at 10,000 nM",No KOR affinity; also recorded: insignificant KOR affinity
Brc1ccc2c(c1)C(c1ccccn1)=NCc1c(-c3cnco3)ncn1-2 [KRM-II-97],BZR % (percent inhibition),[1],93%
same,Ki,[1],140 nM
same,inhibition at 10 µM,µ opioid receptor (MOR),18%
same,inhibition at 10 µM,δ opioid receptor (DOR),8%
same,Ki,κ opioid receptor (KOR),1960 nM
same,inhibition at 10 µM,κ opioid receptor (KOR),62%
C#Cc1ccc2c(c1)C(c1ccccc1F)=N[C@@H](C)c1c(C(N)=O)ncn1-2 [MP-III-018.B],BZR % (percent inhibition),[1],97%
same,Ki,[1],17 nM
same,inhibition at 10 µM,µ opioid receptor (MOR),2%
same,inhibition at 10 µM,δ opioid receptor (DOR),10%
same,Ki,κ opioid receptor (KOR),2780 nM
same,inhibition at 10 µM,κ opioid receptor (KOR),51%
C#Cc1ccc2c(c1)C(c1ccccc1F)=N[C@@H](C)c1c(-c3nc(C)no3)ncn1-2 [GL-I-65],BZR % (percent inhibition),[1],79%
same,Ki,[1],1150 nM
same,MOR % (percent inhibition),µ opioid receptor (MOR),2%
same,DOR % (percent inhibition),δ opioid receptor (DOR),7%
same,KOR % (percent inhibition),κ opioid receptor (KOR),88%
same,Ki,κ opioid receptor (KOR); [2],222 nM
C[C@H]1N=C(c2ccccc2F)c2cc(Cl)ccc2-n2cnc(C(=O)O)c21 [GL-III-54],BZR % (percent inhibition),[1],100%
same,Ki,[1],42 nM
same,inhibition at 10 µM,µ opioid receptor (MOR),0%
same,inhibition at 10 µM,δ opioid receptor (DOR),0%
same,inhibition at 10 µM,κ opioid receptor (KOR),22%
Cc1ncoc1-c1ncn2c1CN=C(c1ccccc1)c1cc(Br)ccc1-2 [KRM-III-66],BZR % (percent inhibition),[1],86%
same,Ki,[1],49 nM
same,inhibition at 10 µM,µ opioid receptor (MOR),12%
same,inhibition at 10 µM,δ opioid receptor (DOR),11%
same,Ki,κ opioid receptor (KOR),756 nM
same,inhibition at 10 µM,κ opioid receptor (KOR),67%
C#Cc1ccc2c(c1)C(c1ccccn1)=NCc1c(-c3cnco3)ncn1-2 [KRM-III-67],BZR % (percent inhibition),[1],71%
same,Ki,[1],144 nM
same,inhibition at 10 µM,µ opioid receptor (MOR),30%
same,inhibition at 10 µM,δ opioid receptor (DOR),3%
same,inhibition at 10 µM,κ opioid receptor (KOR),48%
